According to patent US20180049444A1, “XENORHABDUS SZENTIRMAII METABOLITES, TRANS-CINNAMIC ACID, AND ANALOGS THEREOF AS ENHANCERS OF FUNGICIDAL ACTIVITY” (priority 2016, published 2018):

How the values were obtained:
[1] = test system: Monilinia fructicola (brown rot); experiment: Synergy assessment of TCA and trans-Cinnamaldehyde with commercial fungicides, growth area on PDA after 4 days; assay type: cell-based; details: FIG. 11
Description: Following the procedures above and those in Hazir et al (2017b, J. Invertebrate Path. 145: 1-8), synergy assessments were implemented to compare trans-Cinnamic acid to an exemplary analog, trans-Cinnamaldehyde. The target phytopathogen was Monilinia fructicola (brown rot). Treatment effects were compared by measuring vegetative growth of the phytopathogens in vitro when they were exposed to the fungicidal agents applied alone or in combination. Solutions of the fungicidal treatments were incorporated into potato dextrose agar (PDA) to achieve the desired concentrations, and autoclaved. Prior to autoclaving the PDA, the prescribed volume of distilled water was reduced to allow addition of the fungicide solutions. Controls consisted of PDA without any amendment or PDA with acetone only (the solvent used for TCA). Trans-Cinnamic acid and trans-Cinnamaldehyde were applied alone or with commercial fungicides […]® (extract of Reynoutria sachalinensis) or Serenade® (Bacillus subtilis). After 4 days the area of M. fructicola growth was determined. […] [table]

Glomerella cingulata = experiment: Suppression of in vitro vegetative growth (colony area) on agar amended with 10% supernatant or TCA; assay type: cell-based; details: G. cingulata; FIG. 2; 7 days
Venturia carpophila [2] = experiment: Suppression of spore germination in potato dextrose broth with 10% bacterial supernatant or TCA; assay type: cell-based; details: V. carpophila
Description: (§1) The spores of V. carpophila and V. effusa were used to determine the inhibitory effect of the bacterial supernatants on germination. Supernatants tested were from X. nematophila, X. cabanillasii, X. bovienii, X. szentirmaii, strain 17C+E, P. temperate, P. luminescens (VS) and P. luminescens (K-22). The conidia suspension (0.1 ml) of V. effusa or V. carpophila was added to 0.8 ml potato dextrose broth (PDB) in 2 ml eppendorf tubes containing 0.1 ml (10% v/v) bacterial supernatant. Controls were PDB alone and conidial suspension without supernatant. Because TCA derived from Photorhabdus spp. was identified as an active compound with significant antifungal activity (Bock et al. 2014), TCA was added (1.27 mg/ml) in all experiments for comparison as well. The stock solution of TCA (99% purity, Sigma, St. Louis, Mo.) was prepared with 12.7 g dissolved in 100 ml ethanol (96%). Each treatment was replicated three times, and the experiment was repeated once on a different date. The tubes were incubated at 25° C. for 48 hours and the first 100 conidia were counted under the microscope (400×) to determine percentage spore germination (which was used to determine treatment effects). […] An inhibition rate was determined according to the formula: 100×[(the average percentage of spores germinated in the control−the average percentage of spores germinated in the treatment)/the average percentage of spores germinated in the control] (Fang et al. 2011). Analysis of Variance (ANOVA) (SAS V9.3, SAS Institute Inc., Cary, N.C.) was also applied to the data for V. carpophila.

Monilinia fructicola = experiment: Suppression of in vitro vegetative growth (colony area) on agar amended with 10% supernatant or TCA; assay type: cell-based; details: M. fructicola; FIG. 3; 7 days
V. effusa = experiment: Suppression of spore germination in potato dextrose broth with 10% bacterial supernatant or TCA; assay type: cell-based, Venturia effusa
Description: as §1, with “Each treatment was replicated three times, and the experiment was repeated once on a different date.” left out, “(Fang et al. 2011). Analysis of Variance (ANOVA) (SAS V9.3, SAS Institute Inc., Cary, N.C.) was also applied to the data for V. carpophila.” left out

Venturia carpophila [3] = experiment: Suppression of in vitro vegetative growth (colony area) on agar amended with 10% supernatant or TCA; assay type: cell-based; details: V. carpophila; FIG. 5; 7 days
Description: (§2) Treatment effects were compared by measuring in vitro vegetative growth of the phytopathogens V. carpophila and V. effusa when exposed to the same bacterial exudates evaluated above in the germination study. Solutions of the fungicidal treatments were incorporated into PDA and autoclaved. Prior to autoclaving the PDA, the prescribed volume of distilled water was reduced to allow addition of treatment suspensions. Controls consisted of PDA without any amendment or PDA with acetone only (the solvent for TCA). The media were vortexed when cooled to 40-42° C. and poured to Petri dishes.
(§3) A 5 mm diameter mycelia plug from a fungal culture plate was transferred onto the center surface of each agar dish (Fang et al. 2011; Hazir et al. 2017a) and incubated at 25° C. Vegetative growth of the fungus was measured after 7 days. Growth was measured in two perpendicular directions to obtain the approximate area of the fungal mat.

Venturia effusa = experiment: as above; assay type: cell-based; details: V. effusa; FIG. 4; 7 days
Description: as §2, §3

Row | SMILES | Interaction (level of M. fructicola suppression) when combined with commercial fungicides such as Regalia and Serenade [1] | suppression of vegetative growth compared among treatments (Glomerella cingulata) | percentage spore germination (Venturia carpophila [2]; 10% supernatant or TCA 1.27 mg/ml, 48 hours) [%] | level of suppression of spore germination compared among treatments (Venturia carpophila [2]; FIG. 1) | inhibition at 1270 µg/mL (Venturia carpophila [2]; Venturia carpophila, 10% v/v supernatant or TCA 1.27 mg/ml, 48 hours at 25° C., read-out: Inhibition rate of spore germination (%)) [%] | suppression of vegetative growth compared among treatments (Monilinia fructicola) | percentage spore germination compared among treatments (V. effusa) | inhibition at 1270 µg/mL (V. effusa; Venturia effusa, 10% v/v supernatant or TCA 1.27 mg/ml, 48 hours at 25° C., read-out: Inhibition rate of spore germination (%)) [%] | suppression of vegetative growth compared among treatments (Venturia carpophila [3]) | suppression of vegetative growth compared among treatments (Venturia effusa)
1 | O=C/C=C/c1ccccc1 [CA, trans-Cinnamaldehyde] | synergistic | – | – | – | – | – | – | – | – | –
2 | O=C(O)/C=C/c1ccccc1 [TCA, trans-Cinnamic acid] | synergistic | most suppression | 8.66 | highest level of suppression | 87.7 | greatest suppression | the least | 76.7 | most suppression | highest suppression
